# Assay results published in US12655101B2, “Small molecules with antibacterial activity” (NEW MEXICO TECH UNIVERSITY RESEARCH PARK CORPORATION, priority 2021, dated 2026).
# Read-outs that look alike come from different tables or passages of the source.
# Key:
# Type in all cases: cell-based
# [1] = system: drug-resistant A. baumannii strains obtained from the CDC and Prevention Antimicrobial Isolate Bank; assay: MIC on drug-resistant A. baumannii strains from the CDC Antimicrobial Isolate Bank; conditions: Acinetobacter baumannii
# A. baumannii ATCC 15151 [2] = assay: MIC on A. baumannii ATCC 15151; conditions: Acinetobacter baumannii, ATCC15151; A. baumannii ATCC 15151 (heading of Example 9)
# [3] = system: RecA-GFP fusion protein in E. coli MG1655; assay: Inhibition of norfloxacin-triggered RecA-GFP induction in E. coli MG1655
# Description: An increase in DNA damage-induced RecA protein expression is required for identification and repair of DNA lesions. LexA-repressed transcription of a norfloxacin-triggered SOS response was measured by detecting an increase in RecA-GFP fusion protein fluorescence in an E. coli recombinant model. The compounds of the disclosure inhibited RecA-GFP induction and presumably, the concurrent SOS response. Inhibition of RecA-GFP expression correlated with an increase in cell death, most likely as a result of ALD activation. Sub-potent concentrations of Polymixin E were used to facilitate entry of the compounds into cells.
# E. coli MG1655 was grown from a glycerol stock by placing a small volume of cells onto a MHA plate. The MHA plate was incubated overnight at 37° C. A single colony was subsequently used to inoculate MHB+10 μg/mL kanamycin to obtain a bacterial broth suspension. This was grown in at 37° C. on a rotary shaking incubator (100 rpm) for 12 hours. The bacterial cell concentration was adjusted to ˜5×10^5 colony forming units per milliliter (CFU/mL) in MHB using optical density at 595 nm. Treated cells with polymyxin E (PME) or norfloxacin (in μg/ml) at indicated concentrations for 30 minutes at 37° C. and then added a compound of the disclosure at indicated micromolar concentrations. Incubated for 3.5 hours at 37° C. Cell samples were read on the flow cytometer to detect (green fluorescent) RLU RecA expression and/or shutdown.
# (§1) E. coli MG1655 was grown from a glycerol stock by placing a small volume of cells onto a MHA plate. The MHA plate was incubated overnight at 37° C. A single colony was subsequently used to inoculate MHB+10 μg/mL kanamycin to obtain a bacterial broth suspension. The MHB broth suspension was grown at 37° C. on a rotary shaking incubator (100 rpm) for 12 hours. The bacterial cell concentration was adjusted to ˜5×10^5 CFU/mL in MHB using OD at 595 nm.
# Cells were treated with 0.03 μg/mL and 0.06 μg/mL norfloxacin for 30 minutes at 37° C. Then, 100 μM of the compounds were added. The cells were incubated for 3.5 hours at 37° C. 200 μL aliquots were removed and read by a flow cytometer to detect RecA production and/or shutdown. The cells were incubated for an additional 18 hours at 37° C. to assess overall toxicity.
# E. coli pNMT41 = assay: 6-chloro-4-methyl-umbelliferyl-β-D-glucuronide assay for beta-glucuronidase (inner membrane disruption); conditions: 10 μg/mL PME
# Description: E. coli pNMT 41 was grown from a glycerol stock by placing a small volume of cells onto a MHA plate. The MHA plate was incubated overnight at 37° C. A single colony was subsequently used to inoculate MHB+100 μg/mL ampicillin to obtain a bacterial broth suspension. The MHB broth suspension was grown at 37° C. on a rotary shaking incubator (100 rpm) for 12 hours. The bacterial cell concentration was adjusted to ˜1×10^7 CFU/mL in MHB using OD at 595 nm. The cells were washed 3× by spinning by centrifuge and washing with 500 μL medium 200. The cells were resuspended in 7 mL medium 200. The cells were treated with 10 μM melittin, 6, 12, 24, and 100 μM Compound 25, and 10 μg/mL PME. The cells were incubated at 37° C. for 30 minutes. 1 μM umbelliferyl was added, and the cells were incubated further for 10 minutes at 37° C.
# The cells were then incubated at 37° C. for 45 minutes. 1 μM umbelliferyl was added, and the cells were incubated further for 10 minutes at 37° C.
# A. baumannii ATCC 15151 [4] = assay: DNA degradation (agarose gel), drug-sensitive strain; conditions: 1.5% H2O2, 10 μg/mL ciprofloxacin, 100 μM Compound 25; 3 hours
# E. coli = assay: Filamentation with ciprofloxacin and Compound 25 on E. coli; conditions: for cell morphology and growth: 16 hours
# Description: as §1, with “E. coli: E.” for “E.”, “coli” for “coli MG1655”, “MHB” for “MHB+10 μg/mL kanamycin”, “˜1×10^7” for “˜5×10^5”, “nm. […] The culture tubes were incubated for 16 hours at 37° C. After 16 hours incubation, took 3 μL of cells from each well and plated on microscope slide to observe the following: […]” for “nm.”
# [5] = 18 h, A. baumannii CDC AR033, 18 hours, read-out: MIC values for AR033
# [6] = 18 h, A. baumannii CDC AR083, 18 hours, read-out: MIC values for AR083
# [7] = 20 μM Compound 25+25 ng/mL ciprofloxacin
smiles,measurement,setting,value
"Nc1cccc2[nH]cc(/C=N/Nc3ccc(Cl)cc3)c12 [Compound 14, (E)-3-((2-(4-chlorophenyl)hydrazineylidene)methyl)-1H-indol-4-amine]",MIC,[1]; [5],25 µM
same,MIC,"[1]; 18 h, read-out: MIC values for AR083",12.5 µM
same,MIC,A. baumannii ATCC 15151 [2],6 µM
same,RecA attenuation with norflox on E. coli,[3],Yes
same,inner membrane disruption (GUS fluorescence),"E. coli pNMT41; separate experiment, 12.5 μM Compound 14, 45 minutes",did not disrupt inner membrane
"Clc1ccc(N/N=C/c2c[nH]c3ccc(Br)cc23)cc1 [Compound 15, (E)-5-bromo-3-((2-(4-chlorophenyl)hydrazineylidene)methyl)-1H-indole]",MIC,[1]; [5],25 µM
same,MIC,[1]; [6],12.5 µM
same,MIC,A. baumannii ATCC 15151 [2],12.5 µM
same,RecA attenuation with norflox on E. coli,[3],Yes
"Brc1ccc(N/N=C/c2c[nH]c3cccc(OCc4ccccc4)c23)cc1.Cl [Compound 25, (E)-2-((4-(benzyloxy)-1H-indol-3-yl)methylene)-1-(4-bromophenyl)hydrazin-1-ium chloride]",MIC,[1]; [5],6 µM
same,MIC,[1]; [6],< 3 µM
same,MIC,"[1]; AR bank # 33, SAMN04014874, read-out: Compound 25 MIC",6 µM
same,MIC,"[1]; AR bank # 35, SAMN04014876, read-out: Compound 25 MIC",12.5 µM
same,MIC,"[1]; AR bank # 36, SAMN04014877, read-out: Compound 25 MIC",12.5 µM
same,MIC,"[1]; AR bank # 37, SAMN04014878, read-out: Compound 25 MIC",6 µM
same,MIC,"[1]; AR bank # 45, SAMN04014886, read-out: Compound 25 MIC",6 µM
same,MIC,"[1]; AR bank # 52, SAMN04014893, read-out: Compound 25 MIC",6 µM
same,MIC,"[1]; AR bank # 56, SAMN04014897, read-out: Compound 25 MIC",3 µM
same,MIC,"[1]; AR bank # 63, SAMN04014904, read-out: Compound 25 MIC",3 µM
same,MIC,"[1]; AR bank # 70, SAMN04014911, read-out: Compound 25 MIC",3 µM
same,MIC,"[1]; AR bank # 78, SAMN04014919, read-out: Compound 25 MIC",6 µM
same,MIC,"[1]; AR bank # 83, SAMN04014924, read-out: Compound 25 MIC",3 µM
same,MIC,"[1]; AR bank # 88, SAMN04014929, read-out: Compound 25 MIC",6 µM
same,MIC,"[1]; AR bank # 101, SAMN04014942, read-out: Compound 25 MIC",6 µM
same,MIC,"[1]; AR bank # 102, SAMN04014943, read-out: Compound 25 MIC",6 µM
same,DNA degradation,A. baumannii ATCC 15151 [4],did not degrade DNA
same,MIC,A. baumannii ATCC 15151 [2],3 µM
same,RecA attenuation with norflox on E. coli,[3],Yes
same,inhibition of ciprofloxacin-induced filamentation,E. coli; [7],only slightly inhibited
same,cell morphology and growth,E. coli; [7],elongated in morphology and growth inhibition was observed
same,cell morphology and growth,E. coli; single agent: 25 ng/mL ciprofloxacin or 20 μM Compound 25,morphologically normal and growth inhibition was observed
same,inner membrane disruption (GUS fluorescence),"E. coli pNMT41; 10 μM melittin, 6, 12, 24, 100 μM Compound 25, 30 minutes",did not disrupt the inner membrane
"Cl.Clc1ccc(N/N=C/c2c[nH]c3cccc(OCc4ccccc4)c23)cc1 [Compound 26, (E)-2-((4-(benzyloxy)-1H-indol-3-yl)methylene)-1-(4-chlorophenyl)hydrazin-1-ium]",MIC,[1]; [5],6 µM
same,MIC,[1]; [6],6 µM
same,MIC,A. baumannii ATCC 15151 [2],3 µM
same,RecA attenuation with norflox on E. coli,[3],Yes
"Cl.Fc1ccc(N/N=C/c2c[nH]c3cccc(OCc4ccccc4)c23)cc1 [Compound 27, (E)-2-((4-(benzyloxy)-1H-indol-3-yl)methylene)-1-(4-fluorophenyl)hydrazin-1-ium]",MIC,[1]; [5],25 µM
same,MIC,[1]; [6],12.5 µM
same,MIC,A. baumannii ATCC 15151 [2],12.5 µM
same,RecA attenuation with norflox on E. coli,[3],Yes
